These compounds were tested on Plasmodium falciparum (assay: GSK_TCMDC: Inhibition of Plasmodium falciparum 3D7 in whole erythrocytes, using parasite LDH activity as an index of growth.). Details: Plasmodium falciparum, 3D7.
Assay type: functional, organism-based

| SMILES | XC50 [nM] |
| --- | --- |
| O=C(OCc1ccccc1)N1CCc2c([nH]c3ccccc23)C1CCC(F)(F)F (centres undefined) | 425 |
| CN1CCCC1CCOc1ccc2c(c1)N(C(=O)Nc1cc(Br)cc(C(F)(F)F)c1)CC2 (centres undefined) | 247 |
| NCc1ccc(CNCc2cccc(-c3cccc(-c4nc5cc(F)ccc5[nH]4)c3)c2)cc1 | 308 |
| Oc1ccccc1CNCC12CC3CC(CC(C3)C1)C2 | 279 |
| COc1cc2nc(C)nc(Nc3ccc(Oc4ccccc4)cc3)c2cc1OC | 720 |
| N#Cc1ccc(CN2CCCN(Cc3cccc(NC(=O)c4ccc(-c5ccccc5)cc4)c3)CC2)cc1 | 1020 |
| COc1cc(Cc2cnc(N)nc2N)cc(OCCCS(=O)(=O)O)c1OC | 1170 |
| O=S(=O)(c1cc(Cl)ccc1Cl)N1CCCCC(c2ccc(C(F)(F)F)cc2)=N1 | 998 |
| C=CCNc1cc(-c2ccccn2)nc(-c2ccccn2)n1 | 472 |
| c1ccc(-n2ncc(CNCc3ccc(-c4ccc(-c5nc6ccccc6[nH]5)s4)cc3)n2)cc1 | 1400 |
| O=C(NC1CC1)C1CCN(Cc2cc3ccccc3n2Cc2ccc(Cl)cc2)CC1 | 489 |
| CCc1ccc(C(=O)NC(=O)c2ccccc2O)cc1 | 610 |
| CCc1nc2nc(C)cc(Nc3cc(C)cc(C)c3)n2n1 | 294 |
| COc1ccc(NC(=O)Nc2ccc(C)c(-c3ccc(C(=O)Nc4ccncc4)cc3)c2)cc1 | 572 |
| CC(C)CN1C(=O)c2ccccc2C(C(=O)Nc2cccc(C#N)c2)C1c1cccs1 (centres undefined) | 159 |
| COC(=O)/C=C/c1ccc(CCC(C)NCC(O)c2cccc(Cl)c2)cc1 (centres undefined) | 935 |
| O=S(=O)(NC1CCN(c2ccnc3cc(Cl)ccc23)C1)c1cccs1 (centres undefined) | 697 |
| CC(Cc1ccc(NC(=O)c2ccc(NCCc3ccccc3)cc2)cc1)NCCc1cccc(Cl)c1 (centres undefined) | 854 |
| CC1(CCN2CCC(c3c[nH]c4cnccc34)CC2)CCCc2c(Br)cccc2C1=O (centres undefined) | 195 |
| COc1ccc(C=Cc2cc(=N)c3ccccc3[nH]2)cc1 | 969 |

| SMILES | XC50 [nM] |
| --- | --- |
| N#Cc1ccccc1Sc1ccccc1C(=O)Nc1ccc2ccccc2n1 | 507 |
| Cc1cccc(-n2c(=O)c3c4c(sc3n3c(SCCC(C)C)nnc23)CCCC4)c1 | 763 |
| CCC1(C)CC(CCNCc2ccccc2O)(c2ccccc2OC)CCO1 (centres undefined) | 721 |
| COc1ccc2nccc(CCN3CC(O)C(CNCc4ccc5c(n4)NC(=O)CS5)C3)c2n1 (centres undefined) | 1460 |
| O=C(NCCc1ccc(F)cc1)c1ccc(N2CCN(c3ccncc3)CC2)nc1 | 1420 |
| CC(C)CNCc1cccc(-c2cccc(CN(C(=O)c3cccs3)C3CCN(Cc4ccccc4)CC3)c2)c1 | 896 |
| COc1ccc(NC(=O)c2csc(-c3cc(NC(=O)c4ccnc(N5CCCC5)c4)ccc3C)c2)cc1N1CCN(C)CC1 | 660 |
| COc1cccc(CNCC(C)(C)c2nc(-c3ccc(Cl)c(O)c3)c(-c3ccncc3)[nH]2)c1 | 693 |
| Cc1ccc(-c2nnc(Nc3ccc(CC(N)=O)cc3)c3ccccc23)cc1S(=O)(=O)NCC1CCCO1 (centres undefined) | 791 |
| CCc1c[nH]c2c(N(c3ccccc3)S(C)(=O)=O)cc(C(=O)N[C@@H](Cc3ccccc3)[C@H](O)CNCc3cccc(C(F)(F)F)c3)cc12 | 997 |
| CC[C@H]1CN2CC[C@H]1C[C@H]2[C@H](O)c1cc(N2CCC3CCCCC3C2)nc2ccc(OC)cc12 (some centres undefined) | 170 |
| CNC(=O)c1ccc2[nH]cc(C3CCN(CC4CCC(NC(=O)/C=C/c5ccc(Cl)c(Cl)c5)CC4)CC3)c2c1 (centres undefined) | 1010 |
| COc1cc(OC)cc(C(=O)Nc2cccc(-c3cn4ccc(C)cc4n3)c2)c1 | 994 |
| N#Cc1ccc(-c2ccc(C(=O)NCCCCN3CCC(c4cc(Br)c5c(c4OCC(N)=O)CCCC5)CC3)cc2)cc1 | 797 |
| Cn1cncc1C(=O)Nc1cccc(-c2cccc(-c3nc4ccccc4[nH]3)c2)c1 | 635 |
| CN1CCN(Cc2cccc(-c3ccc4c(Nc5ccc(F)cc5Cl)ccnc4c3)c2)CC1 | 156 |
| CC(C)(C)CC(C)(C)c1ccc(O)c(C(=O)Nc2cccc([N+](=O)[O-])c2)c1 | 589 |
| CCCCSc1ccc2nc(-c3c[nH]c4ccc(C#N)cc34)cn2c1 | 948 |
| CC(C)Nc1cc(C(=O)N[C@@H](Cc2ccccc2)[C@H](O)CNC2CCOCC2)c(F)c(N2CCCCS2(=O)=O)c1 | 183 |

Reference: ChEMBL document CHEMBL1157539, “Thousands of chemical starting points for antimalarial lead identification” (Nature, 2010)
